According to ChEMBL document CHEMBL1287770, “A protected l-bromophosphonomethylphenylalanine amino acid derivative (BrPmp) for synthesis of irreversible protein tyrosine phosphatase inhibitors” (Bioorg Med Chem, 2010):
Blank lines part the entries; values can stand above or below the molecule they belong to. Calls of active or inactive are those of the source. The rule behind the calls is not given here.

Assays:
[1] = biological target: T1, Receptor-type tyrosine-protein phosphatase C (Homo sapiens, UniProt P08575); experiment: Inhibition of human CD45-cytoplasmic domain at 1500 uM after 10 mins by Kitz-Wilson analysis
T1 sequence (P08575 whole entry): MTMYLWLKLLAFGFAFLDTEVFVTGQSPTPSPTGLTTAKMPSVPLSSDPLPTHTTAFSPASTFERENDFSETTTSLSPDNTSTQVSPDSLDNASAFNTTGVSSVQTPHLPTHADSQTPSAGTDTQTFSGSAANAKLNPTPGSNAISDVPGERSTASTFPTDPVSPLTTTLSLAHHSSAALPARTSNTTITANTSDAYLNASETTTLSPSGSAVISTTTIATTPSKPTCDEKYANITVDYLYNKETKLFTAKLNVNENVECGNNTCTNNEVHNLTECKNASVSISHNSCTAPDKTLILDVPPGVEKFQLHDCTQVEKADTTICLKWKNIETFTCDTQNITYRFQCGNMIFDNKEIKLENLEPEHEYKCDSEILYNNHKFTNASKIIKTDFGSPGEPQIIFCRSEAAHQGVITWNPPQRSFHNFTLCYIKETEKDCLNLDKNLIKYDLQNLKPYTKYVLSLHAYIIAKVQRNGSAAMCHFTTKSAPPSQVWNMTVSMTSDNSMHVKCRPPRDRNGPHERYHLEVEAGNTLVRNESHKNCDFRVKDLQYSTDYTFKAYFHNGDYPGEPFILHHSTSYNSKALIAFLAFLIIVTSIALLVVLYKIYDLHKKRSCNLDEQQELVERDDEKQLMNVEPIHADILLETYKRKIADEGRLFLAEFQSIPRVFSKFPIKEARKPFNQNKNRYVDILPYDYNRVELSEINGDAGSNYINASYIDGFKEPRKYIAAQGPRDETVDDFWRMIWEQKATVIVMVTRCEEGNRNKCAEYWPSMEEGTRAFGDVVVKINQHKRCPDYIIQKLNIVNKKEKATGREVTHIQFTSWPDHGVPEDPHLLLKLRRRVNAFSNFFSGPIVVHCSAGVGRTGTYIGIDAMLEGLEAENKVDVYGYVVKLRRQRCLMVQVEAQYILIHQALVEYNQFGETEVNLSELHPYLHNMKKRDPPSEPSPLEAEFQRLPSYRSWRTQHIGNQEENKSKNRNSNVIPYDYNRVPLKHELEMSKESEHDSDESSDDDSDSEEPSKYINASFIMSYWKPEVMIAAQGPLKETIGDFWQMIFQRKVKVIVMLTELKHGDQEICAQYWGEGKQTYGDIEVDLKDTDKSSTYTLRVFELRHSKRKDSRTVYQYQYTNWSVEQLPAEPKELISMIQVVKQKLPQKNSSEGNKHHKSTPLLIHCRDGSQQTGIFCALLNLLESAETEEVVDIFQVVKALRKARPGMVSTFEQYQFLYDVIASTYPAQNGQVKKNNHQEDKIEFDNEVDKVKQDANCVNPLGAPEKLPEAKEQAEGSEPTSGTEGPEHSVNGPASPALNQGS

[2] = biological target: T1, Receptor-type tyrosine-protein phosphatase C; experiment: Inhibition of human CD45-cytoplasmic domain at 150 uM after 10 mins by Kitz-Wilson analysis
[3] = biological target: T2, Receptor-type tyrosine-protein phosphatase C (Homo sapiens) (UniProt P08575); experiment: Competitive inhibition of human CD45-cytoplasmic domain after 10 mins
T2 sequence (whole entry): T1 sequence (P08575 whole entry)

[4] = biological target: T2, Receptor-type tyrosine-protein phosphatase C (Homo sapiens); experiment: Competitive inhibition of human CD45-cytoplasmic domain; conditions: TDE = time-dependent effect
[5] = compound: N[C@@H](Cc1ccc(C(Br)P(=O)(O)O)cc1)C(=O)O; experiment: Inhibition of human CD45-cytoplasmic domain at 150 uM after 10 mins by Michaelis-Menten equation analysis
[6] = compound: CC(C)C[C@H](NC(=O)[C@H](Cc1ccc(C(Br)P(=O)(O)O)cc1)NC(=O)[C@@H](N)CC(=O)O)C(=O)O; experiment: Inhibition of human CD45-cytoplasmic domain at 35 uM after 10 mins by Michaelis-Menten equation analysis

Molecule: O=P(O)(O)C(Br)c1ccccc1 (configuration not stated) [[BROMO(PHENYL)METHYL]PHOSPHONIC ACID]
Ki [1]: Not Active

Ki [2]: 40 µM
inhibition [3]: inactive
inhibition [4]: tde
Molecule: N[C@@H](Cc1ccc(C(Br)P(=O)(O)O)cc1)C(=O)O (some centres not stated)

inhibition [3]: inactive
Molecule: CC(C)C[C@H](NC(=O)[C@H](Cc1ccc(C(Br)P(=O)(O)O)cc1)NC(=O)[C@@H](N)CC(=O)O)C(=O)O (some centres not stated)

B1: Receptor-type tyrosine-protein phosphatase C (Homo sapiens), P08575 (protein)
chain: T1 sequence (P08575 whole entry)
Km [5]: 141 µM
Km [6]: 141 µM
